Results reported in PubChem BioAssay (NCI).
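Grown in 96-well plates, cells were treated for 48 hours with each compound at five concentrations. Insufficient inhibition: endpoint recorded as highest concentration tested. Here, GI50 denotes the concentration required for 50% inhibition of growth. At the TGI there is no net growth.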

What was measured:
Assay in all cases: NCI tumour cell line growth inhibition, 48 h
IGROV1 ovarian = tested on: IGROV1 ovarian
SR leukemia = tested on: SR leukemia
SNB-75 CNS = tested on: SNB-75 CNS
TK-10 renal = tested on: TK-10 renal
SF-295 CNS = tested on: SF-295 CNS
MOLT-4 leukemia = tested on: MOLT-4 leukemia
CAKI-1 renal = tested on: CAKI-1 renal
NCI/ADR-RES ovarian = tested on: NCI/ADR-RES ovarian
DU-145 prostate = tested on: DU-145 prostate
UO-31 renal = tested on: UO-31 renal
HOP-92 NSCLC = tested on: HOP-92 NSCLC
KM12 colon = tested on: KM12 colon
LOX IMVI melanoma = tested on: LOX IMVI melanoma
CCRF-CEM leukemia = tested on: CCRF-CEM leukemia
UACC-62 melanoma = tested on: UACC-62 melanoma
HCT-116 colon = tested on: HCT-116 colon
HCC-2998 colon = tested on: HCC-2998 colon
BT-549 breast = tested on: BT-549 breast
HL-60(TB) leukemia = tested on: HL-60(TB) leukemia
MCF7 breast = tested on: MCF7 breast
PC-3 prostate = tested on: PC-3 prostate
SF-539 CNS = tested on: SF-539 CNS
ACHN renal = tested on: ACHN renal
SW-620 colon = tested on: SW-620 colon
OVCAR-5 ovarian = tested on: OVCAR-5 ovarian
SK-OV-3 ovarian = tested on: SK-OV-3 ovarian
OVCAR-8 ovarian = tested on: OVCAR-8 ovarian
MALME-3M melanoma = tested on: MALME-3M melanoma
HS 578T breast = tested on: HS 578T breast
OVCAR-4 ovarian = tested on: OVCAR-4 ovarian

`CCOC(=O)c1sc(N/N=C(\C)c2ccc3c(c2)Nc2ccccc2S3)nc1C` showed a TGI (IGROV1 ovarian) of 26 µM, a GI50 (SR leukemia) of over 100 µM and a TGI (SR leukemia) of over 100 µM. For the same compound, the GI50 (SNB-75 CNS) was 8.97 µM, the TGI (SNB-75 CNS) was 31.2 µM and the GI50 (TK-10 renal) was 16.6 µM. For the same compound, the TGI (TK-10 renal) was 33.5 µM, the GI50 (SF-295 CNS) was 3.38 µM and the TGI (SF-295 CNS) was 14.1 µM. The GI50 (MOLT-4 leukemia) was 6.33 µM, the TGI (MOLT-4 leukemia) was over 100 µM and the GI50 (CAKI-1 renal) was 9.09 µM. It also gave a TGI (CAKI-1 renal) of 22.8 µM, a GI50 (NCI/ADR-RES ovarian) of 8.87 µM and a TGI (NCI/ADR-RES ovarian) of 22.2 µM. It also gave a GI50 (DU-145 prostate) of 8.82 µM, a TGI (DU-145 prostate) of 29.1 µM and a GI50 (UO-31 renal) of 6.67 µM. It also gave a TGI (UO-31 renal) of 20.7 µM, a GI50 (HOP-92 NSCLC) of 4.9 µM and a TGI (HOP-92 NSCLC) of 19.9 µM. The GI50 (KM12 colon) was 3.45 µM, the TGI (KM12 colon) was 19.4 µM and the GI50 (LOX IMVI melanoma) was 3.14 µM. The TGI (LOX IMVI melanoma) was 12.4 µM, the GI50 (CCRF-CEM leukemia) was 6.52 µM and the TGI (CCRF-CEM leukemia) was 94.4 µM. It also gave a GI50 (UACC-62 melanoma) of 6.06 µM, a TGI (UACC-62 melanoma) of 20.6 µM and a GI50 (HCT-116 colon) of 6.64 µM. It also gave a TGI (HCT-116 colon) of over 100 µM, a GI50 (HCC-2998 colon) of 3.71 µM and a TGI (HCC-2998 colon) of 12.8 µM. For the same compound, the GI50 (BT-549 breast) was 18.4 µM, the TGI (BT-549 breast) was 49.3 µM and the GI50 (HL-60(TB) leukemia) was 4.89 µM. For the same compound, the TGI (HL-60(TB) leukemia) was over 100 µM, the GI50 (MCF7 breast) was 3.36 µM and the TGI (MCF7 breast) was 17.5 µM. For the same compound, the GI50 (PC-3 prostate) was 6.04 µM, the TGI (PC-3 prostate) was 24 µM and the GI50 (SF-539 CNS) was 10.1 µM. It also gave a TGI (SF-539 CNS) of 21.7 µM, a GI50 (ACHN renal) of 6.1 µM and a TGI (ACHN renal) of 19.1 µM. For the same compound, the GI50 (SW-620 colon) was 11.9 µM, the TGI (SW-620 colon) was 45.2 µM and the GI50 (OVCAR-5 ovarian) was 11.6 µM. For the same compound, the TGI (OVCAR-5 ovarian) was 67.6 µM, the GI50 (SK-OV-3 ovarian) was 16.9 µM and the TGI (SK-OV-3 ovarian) was 39.7 µM. It also gave a GI50 (OVCAR-8 ovarian) of 12 µM, a TGI (OVCAR-8 ovarian) of 39.6 µM and a GI50 (MALME-3M melanoma) of 13.7 µM. For the same compound, the TGI (MALME-3M melanoma) was 33.6 µM, the GI50 (HS 578T breast) was 10.5 µM and the TGI (HS 578T breast) was 50.6 µM. It also gave a GI50 (OVCAR-4 ovarian) of 10.7 µM and a TGI (OVCAR-4 ovarian) of 53.7 µM.
